The results in this text go back to patent publication US6525091B2, “Substituted diarylureas as stimulators for Fas-mediated apoptosis” (Telik, Inc., priority 2001, dated 2003).

One experiment concerns hepatocytes. The experiment is described as follows: Fas-dependent apoptosis, FACS analysis of DNA fragmentation (propidium iodide) and annexin V staining. The format is cell-based. The settings on record: at 10 μM. The method, then:
Assays for Fas-dependent apoptosis are known in the art. See, for example, Ruiz-Ruiz et al, Cell Death Diff. 271 (1999); and Muller et al., J. Exp. Therap. 188:2033 (1998).
Apoptosis is identified by detection of the DNA fragmentation pattern characteristic of apoptotic cell death. In this Example, apoptosis is detected and measured by FACS® analysis carried out in a FACScan® flow cytometer (Becton Dickinson) using CellQuest software. Quantification of DNA fragmentation is performed by FACS® analysis of propidium iodide-stained nuclei as described in Nicolletti et al., J. Immunol. Methods 139:271-279 (1991). Hepatocytes floating in the culture medium are collected by centrifugation at 200×g. Adherent hepatocytes are harvested-by incubation with 1% trypsin for 1 min. The cells are washed in phosphate-buffered saline (PBS), suspended in hypotonic lysis buffer (0.1% sodium citrate, 0.1% Triton X, and […] propidium iodide) (Sigma) and incubated at 4° C. for 6 hours. Cells are then analyzed for DNA content by flow cytometry.
Early apoptotic changes are identified using annexin V-Fluos (Boehringer Mannheim) which binds to phosphatidylserine molecules (PS) exposed on apoptotic, but not normal, cell membranes (PS is normally restricted to the inner leaflet of the cell membrane bilayer). […] Cells are incubated for 10-15 min and analyzed on a flow cytometer using CellQuest software. […]

For the next experiment, the system named is synoviocytes. The experiment is described as follows: Stimulation of Fas-mediated apoptosis with h-HFE7A anti-human Fas antibody, XTT cell viability, stimulation index. The format is cell-based. The settings on record: 10 μM compound with h-HFE7A 1000 ng/mL, synoviocytes from rheumatoid arthritis patients, 16 hours. From the text: Anti-human Fas antibody h-HFE7A, humanized antibody was obtained from Sankyo Co., Ltd. This antibody induces apoptosis when cross-linked with secondary antibody in vitro.
Samples of human synovium were obtained from rheumatoid arthritis patients at the time of total knee replacement surgery or synoviectomy. Synovial tissue was minced into small pieces and was digested with collagenase and cultured in Ham's F12 medium supplemented with 10% fetal bovine serum (F10F) in a humidified 5% CO2 atmosphere at 37° C. Adherent cells were considered as synoviocytes and were cultivated in F10 F.
Cell viability was determined with the XTT method described in Cancer Res. 48:4827 (1988). Ninety-six well flat plates were precoated with anti-human IgG. h-HFE7A (1000 ng/mL) and/or 10 μM of a compound of this invention were added and incubated for 2 hours. Synoviocytes were seeded (10,000/well) and incubated for 16 hours. Background wells received culture medium only. XTT (2,3-Bis[2-methoxy-4-nitro-sulfophenyl]-2H-tetrazolium-5-carboxanilide), final concentration 200 μg/mL, and phenazine methosulfate, final concentration 5 μM, were added to each well, and further incubated for 4 hours. The absorbance at 450 nm was measured and cell viability was determined as follows: [formula]
Enhancement of Fas-mediated apoptosis by compounds of this invention was determined by the stimulation index (SI): [formula] […]
(In general: Tetrazolium assays rely on reduction of a dye to a coloured formazan, in cell work by metabolically active cells.)

The structures appear in SMILES notation.

For `O=C(Nc1ccc(Br)c([N+](=O)[O-])c1)Nc1ccc(Br)c([N+](=O)[O-])c1` [Compound 3], the “stimulation of Fas-dependent apoptosis” value with hepatocytes is “stimulation of Fas-dependent apoptosis”. In the experiment with synoviocytes, the “Enhancement of Fas-mediated apoptosis, stimulation index (SI)” value is listed as “positive (An SI over 2.0 was considered positive)”.
